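Growth conditions: 96-well plates. Treatment: test compound, 48 hours, 5 concentrations. Analysis: linear interpolation between bracketing concentrations; unreached endpoints set to highest concentration. The concentration for 50% growth inhibition is given as GI50. TGI marks complete inhibition of growth.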
Tests used:
Assay in all cases: DTP human tumour cell line panel, 48 h
[1] = system: T-47D breast
[2] = system: DU-145 prostate
[3] = system: NCI/ADR-RES ovarian
[4] = system: BT-549 breast
[5] = system: MDA-N

| Structure (SMILES) | GI50 [1] [µM] | TGI [1] [µM] | GI50 [2] [µM] | TGI [2] [µM] | GI50 [3] [µM] | TGI [3] [µM] | GI50 [4] [µM] | TGI [4] [µM] | TGI [5] [µM] |
| --- | --- | --- | --- | --- | --- | --- | --- | --- | --- |
| CCCc1nc2c(C)cc(-c3nc4ccccc4n3C)cc2n1Cc1ccc(-c2ccccc2C(=O)O)cc1 | 48.5 | > 100 | 44 | > 100 | 41.9 | > 100 | 52.3 | > 100 | – |
| COc1ccc([N+](=O)[O-])c(S(=O)(=O)c2ccc(Cl)cc2)n1 | 2.12 | 5.41 | 9.63 | 21.3 | 4.93 | > 100 | 2.75 | 8.97 | – |
| COc1cc(-n2cc(-c3ccc(Cl)cc3)[nH]c2=O)cc(OC)c1OC | – | – | 57.4 | > 100 | 23.1 | 63.6 | 27.1 | 71.8 | – |
| COC(=O)CCC/C=C\C[C@H]1C=CC(=O)/C1=C/C[C@@H](O)C/C=C\CC(F)(F)F | 3.06 | 16.3 | 3.89 | 14.7 | 2.32 | 8.33 | 2.12 | 5.37 | – |
| CSc1nc2sc3cc(Cl)ccc3n2c(=N)c1C#N | 23.7 | > 100 | > 68.7 | > 100 | > 42.2 | > 100 | 25.4 | > 100 | – |
| COc1ccc(C2=NN(C(C)=O)C(c3cn(-c4ccccc4)nc3-c3ccc(Cl)cc3)C2)cc1 (stereo unspecified) | > 100 | > 100 | > 100 | > 100 | > 100 | > 100 | > 100 | > 100 | – |
| C[C@@H]1C=C2C(=O)O[C@@H]3CC[C@H](C1)[C@]23O | 3.02 | 15.1 | 2.14 | 5.78 | 11.9 | 95.8 | 4.4 | 17.3 | – |
| COC1=CC(c2ccc[nH]2)=N/C1=C\c1ccc[nH]1 | 0.151 | 1.77 | 0.163 | 13.3 | 0.304 | 13.8 | 0.145 | 5.71 | – |
| Cc1[nH]c(=O)[nH]c(=O)c1CO | > 100 | > 100 | > 100 | > 100 | > 100 | > 100 | > 100 | > 100 | – |
| CCOC(=O)c1c(C(F)(F)F)n([O-])c2ccc(OC)cc2[n+]1=O | 2.6 | 8.69 | 5.15 | > 100 | 3.72 | 40.7 | 4.29 | 33.7 | – |
| CCC(=C/[C@H](C)C/C=C/C(C)=C/[C@@H](C)C(=O)[C@@H](C)[C@H](O)[C@@H](C)CC)/C=C/[C@H]1OC(=O)C=C[C@H]1C | < 0.01 | 0.88 | < 0.01 | 2.69 | < 0.01 | 1.39 | < 0.01 | – | – |
| O=C(/C=C\c1ccc(Cl)cc1Cl)c1cccs1 | – | 55.7 | – | 44.9 | – | > 100 | – | – | 35.8 |
| COc1ccc(-c2ccc(C3CC(c4ccc(Cl)cc4)=NN3)o2)c([N+](=O)[O-])c1 (stereo unspecified) | > 100 | > 100 | > 100 | > 100 | > 100 | > 100 | > 100 | > 100 | – |
| Cn1cc(C2=C(c3cn(CCN)c4ccccc34)C(=O)NC2=O)c2ccccc21 | 5.32 | 14.7 | 8.63 | > 25 | 10.7 | > 25 | 7.82 | > 23.8 | – |
| Nc1ccc(/C=N/Nc2ccnc3c(N)cccc23)c2cccnc12 | 2.27 | 5.02 | 1.68 | 3.13 | 1.93 | 4.41 | – | – | – |
| C[C@H]1[C@H](C)CC[C@]2(C(=O)O)CC[C@]3(C)C(=CC[C@@H]4[C@@]5(C)C/C(=C/c6ccco6)C(=O)C(C)(C)[C@@H]5CC[C@]43C)[C@H]12 | 3.79 | 33.8 | 6.41 | 30.9 | 3.84 | 16.1 | 4.76 | 18.9 | – |
| CCCCCCCC[N+](C)(CCCCCCCC)CCCCCCCC | 0.258 | 1.73 | 0.414 | 1.41 | 1.51 | 3.23 | 0.309 | 0.977 | – |
| NS(=O)(=O)c1ccc(N2N=C3c4ccccc4CC3C2c2ccc(Cl)cc2)cc1 (stereo unspecified) | 32.9 | > 100 | 14.2 | 36.7 | 10.3 | 38.5 | – | – | – |
| Cc1nc(NC(=O)CCCN2C(=O)c3cccc4cccc(c34)C2=O)sc1C(=O)Nc1cc(C(=O)NCCCN(C)C)n(C)c1 | > 100 | > 100 | > 100 | > 100 | > 100 | > 100 | – | – | – |

| Structure (SMILES) | GI50 [1] [µM] | TGI [1] [µM] | GI50 [2] [µM] | TGI [2] [µM] | GI50 [3] [µM] | TGI [3] [µM] | GI50 [4] [µM] | TGI [4] [µM] | TGI [5] [µM] |
| --- | --- | --- | --- | --- | --- | --- | --- | --- | --- |
| COc1ccccc1CNCCCN1C(=O)c2ccc3c4c(ccc(c24)C1=O)C(=O)N(CCCNCCCN)C3=O | 0.791 | 3.08 | 0.63 | 2.39 | 1.16 | 5.71 | 1.44 | 3.81 | – |
| COc1ccc(NC(=O)c2sc3nc(C)c(C(O)c4ccccc4)cc3c2N)cc1 (stereo unspecified) | 3.36 | 98.3 | 3.21 | > 100 | 2.55 | 9.03 | 6.13 | 51.6 | – |
| COC(=O)C1=C(C(=O)OC)C23C=C(C)C1C2=C(C)C1(CC1)[C@@](C)(O)C3=O (stereo partly specified) | 0.515 | 6.4 | 0.197 | > 100 | 0.303 | 4.24 | 0.404 | 3.3 | – |
| Cc1ccc(S(=O)(=O)N2CCc3ccc(O)c4c3C2Cc2cc(Cl)ccc2-4)cc1 (stereo unspecified) | 1.76 | 19.7 | 0.912 | 2.4 | 0.819 | 2.27 | 1.95 | 9.66 | – |
| CCOC(=O)c1sc(=S)c2c(C(=O)OCC)c(C(=O)OCC)sc2c1C(=O)OCC | 23.7 | 95.5 | 17.4 | 39 | 17.3 | 35.9 | 21.5 | 45.4 | – |
| CC(=O)N=c1ccc2nc3c(cc(N)c4ccccc43)oc-2c1 | – | – | 1.66 | 3.03 | 1.62 | 4.95 | 2.47 | 7.46 | – |
| COc1ccc(-c2nc(-c3nc4ccc(OC)cc4[nH]3)cc3c2[nH]c2ccccc23)cc1 | 2.27 | > 100 | 2.06 | > 100 | 2.1 | > 100 | 7.1 | > 100 | – |
| CCOC(=O)c1sc(Nc2ccc(Cl)cc2)nc1C | – | – | 2.47 | 9.04 | 1.78 | 4.08 | 1.48 | 3.29 | – |
| COc1cc2nc(Nc3cccc(F)c3)nc(Nc3cc(C)[nH]n3)c2cc1OC | 1.36 | 4.05 | 1.64 | 3 | 1.6 | 3.64 | 1.68 | 3.2 | – |
| COc1cc(C(=O)c2cc3c(cc2C)OCO3)cc(OC)c1OC | 0.923 | > 100 | – | – | 0.226 | > 100 | 0.211 | > 100 | – |
| COc1ccc2c(c1)CC[C@@H]1[C@@H]2CC[C@]2(C)C(c3ccco3)=C(C=O)C[C@@H]12 | 18.8 | 92.3 | 7.82 | 27 | 11.5 | 64.6 | 17.7 | 43.3 | – |
| COc1ccc(/C=C/c2n[nH]c3ccc(N4CCOC4=O)cc23)cc1 | 3.01 | 8.56 | 3.43 | > 100 | 2.99 | 40.2 | 1.14 | 5.32 | – |
| CCCN(CCC)c1ccc(/C=N/NC(=O)c2cccnc2)c(Cl)c1 | 1.07 | 13.9 | 17.8 | 49 | 5.78 | 48.4 | 12.9 | 33.4 | – |
| CCn1cnc2c(Nc3cccc(Cl)c3)nc(N[C@@H]3CCCC[C@@H]3N)nc21 | 1.98 | 5.16 | 1.01 | 3.15 | 2.04 | 6.71 | 1.73 | 3.73 | – |
| COc1cc(-c2cc(-c3nc4ccc(Cl)cc4[nH]3)[nH]n2)cc(OC)c1OC | 1.58 | 4.54 | 3.27 | 13.4 | – | – | 2.54 | 8.35 | – |
| N#Cc1ccnc(N2C(=O)CC[C@H]2C(=O)N(c2cncc(F)c2)[C@H](C(=O)NC2CC(F)(F)C2)c2ccccc2Cl)c1 | > 100 | > 100 | 82.5 | > 100 | > 100 | > 100 | > 100 | > 100 | – |
| Nc1ncnc2c1ncn2C1OC(CO)=CC1O (stereo unspecified) | – | > 37.5 | – | > 37.5 | – | > 37.5 | – | – | > 37.5 |
| C=C(C)[C@@H]1CC[C@]2(C)[C@H](CC[C@@H]3[C@H]4[C@H]5OC[C@@]4(CCC5(C)C)CC[C@]32C)[C@@]1(C)CCCN | 1.88 | 4.21 | 1.86 | 3.36 | 1.95 | 3.89 | 1.67 | 3.12 | – |

Source: PubChem BioAssay (NCI)
